# From patent publication US6866861B1, “Method and composition for enhancing milk component concentrations” (Land O'Lakes, Inc., priority 1999, dated 2005)
# Test system: cows
# Assay: Abomasal infusion of sorbitol in cows, repeat trial with different cows (Example 3)
# Type: in vivo, cow
# Settings: for Fat / Lactose / Non-Protein Nitrogen / Total Solids / True Protein: 100 g/cow/day abomasal, 3 cows
# Procedure: To determine the weight percent total solids, wet basis, in a sample, the actual weight of total solids is determined by analyzing the sample in accordance with Method #925.23 (33.2.09) of Official Methods of Analysis, Association of Official Analytical Chemists (AOAC) (16th Ed., 1995). The weight percent total solids, wet basis, is then calculated by dividing the actual weight of total solids by the actual weight of the sample. The weight percent of true protein, wet basis, for a particular sample is calculated after first determining the wet basis weight percent of total Kjeldahl nitrogen and the wet basis weight percent of non-protein nitrogen in the sample. The wet basis weight percent of total Kjeldahl nitrogen in the sample is determined using the method referenced above. The wet basis weight percent of non-protein nitrogen (NPN) in the sample is determined in accordance with Method #991.21 (33.2.12) of Official Methods of Analysis, Association of Official Analytical Chemists (AOAC) (16th Ed., 1995). The weight percent of true protein, wet basis, in the sample is then determined by subtracting the wet basis weight percent of non-protein nitrogen in the sample from the wet basis weight percent of total Kjeldahl nitrogen in the sample. To determine the weight percent lactose, wet basis, in a liquid sample, the weight of the liquid sample is first determined. The actual weight of lactose in the liquid sample may then be determined using analysis kit number 176-303, that is available from Boehringer-Mannheim of Indianapolis, Ind. in accordance with the procedural instructions included with analysis kit number 176-303. The weight percent lactose, wet basis, in the liquid sample is then calculated by dividing the actual weight of lactose in the liquid sample by the actual weight of the liquid sample. To determine the weight percent fat, wet basis, in a sample, the actual weight of fat in the sample is determined in accordance with Method #974.09 (33.7.18) of Official Methods of Analysis, Association of Official Analytical Chemists (AOAC) (16th Ed., 1995). The weight percent fat, wet basis, is then calculated by dividing the actual weight of fat in the sample by the actual weight of the sample. In this example, sorbitol was abomasally infused into three different cows at a rate of 100 grams of sorbitol per cow per day during a 14 day test period. The sorbitol rations were mixed with water to facilitate infusion. The rations provided to the cows during the period extending from day 0, prior to abomasal infusion of sorbitol, through day 14 of the test period were the same. The only difference in feeding of the cows between day 0 and days 1-14 of the test period were that during days 1-14 the cows were abomasally infused with the dosage of 100 grams of sorbitol per cow per day. Milk from the three cows was collected and analyzed prior to infusion (on day 0) and also was collected and analyzed on the third, seventh and fourteenth day of the test period. The results presented in Table 2 below for each milk component for each particular day are averages for the milk collected from the three different cows. The trial of Example 2 was repeated in Example 3 several months later using three different cows. All of the test conditions described above for Example 2 were repeated in Example 3, with the exception of use of different cows. The results of the second trial are listed in Table 3 below: The net change for the different milk components presented in Table 3 was calculated by averaging the results of days 3, 7 and 14 for a particular milk component and subtracting the results presented for day 0 for the particular milk component. The results of Table 3 illustrate that, on average, the abomasal infusion of sorbitol caused a net increase in the amount of fat and total solids in the milk of the test cattle. […]
# [1] = milk, average of days 3, 7, 14 minus day 0
smiles,measurement,setting,value
OC[C@@H](O)[C@@H](O)[C@H](O)[C@@H](O)CO [sorbitol],amount of fat and total solids in the milk (conclusion in words),"abomasal infusion, 14 day test period, on average",net increase
same,Fat,"milk, Day 3",4.22 Wt %
same,Lactose,"milk, Day 3",4.80 Wt. %
same,Non-Protein Nitrogen,"milk, Day 3",0.23 Wt. %
same,Total Solids,"milk, Day 3",12.95 Wt. %
same,True Protein,"milk, Day 3",3.21 Wt. %
same,Fat,"milk, Day 7",3.53 Wt %
same,Lactose,"milk, Day 7",5.12 Wt. %
same,Non-Protein Nitrogen,"milk, Day 7",0.27 Wt. %
same,Total Solids,"milk, Day 7",12.26 Wt. %
same,True Protein,"milk, Day 7",2.89 Wt. %
same,Fat,"milk, Day 14",3.81 Wt %
same,Lactose,"milk, Day 14",5.80 Wt. %
same,Non-Protein Nitrogen,"milk, Day 14",0.23 Wt. %
same,Total Solids,"milk, Day 14",12.55 Wt. %
same,True Protein,"milk, Day 14",3.22 Wt. %
same,"Fat, Net Change",[1],+0.38 Wt %
same,"Lactose, Net Change",[1],+0.39 Wt. %
same,"Non-Protein Nitrogen, Net Change",[1],no net change
same,"Total Solids, Net Change",[1],+0.41 Wt. %
same,"True Protein, Net Change",[1],−0.03 Wt. %
same,increase of true protein content if the results of day 7 were eliminated from the net change,"milk, days 3 and 14 versus day 0",about 0.08 weight percent
